Experimental data taken from the supplement of paper PMC11451515.

Tested on: SEM cells
Assay: cell viability relative to DMSO control; higher = less cytotoxic
Settings: 48 h
Summary of the method: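 Cells were incubated for 48 h at 37°C before CellTiter-Glo One luminescence was read. The cells were NOMO1 or SEM (500 cells/well) or P12-Ichikawa (1000 cells/well) leukemia cells, adapted for at least four passages in each medium and seeded in 1536-well plates (5 μl). Dosing used library compounds in DMSO applied by pin over 11 threefold points, 47 μM to 0.79 nM. Viability is the per-plate percentage of DMSO wells, with cell-free wells as background.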

[1] = HPLM + 10% dialyzed FBS, 0.000781 µM
[2] = HPLM + 10% dialyzed FBS, 0.00234 µM
[3] = HPLM + 10% dialyzed FBS, 0.00702 µM
[4] = HPLM + 10% dialyzed FBS, 0.0211 µM
[5] = HPLM + 10% dialyzed FBS, 0.0632 µM
[6] = HPLM + 10% dialyzed FBS, 0.19 µM
[7] = HPLM + 10% dialyzed FBS, 0.569 µM
[8] = HPLM + 10% dialyzed FBS, 1.71 µM
[9] = HPLM + 10% dialyzed FBS, 5.12 µM
[10] = HPLM + 10% dialyzed FBS, 15.4 µM
[11] = HPLM + 10% dialyzed FBS, 46.1 µM
[12] = RPMI 5 mM glucose + 10% FBS, 0.000781 µM
[13] = RPMI 5 mM glucose + 10% FBS, 0.00234 µM
[14] = RPMI 5 mM glucose + 10% FBS, 0.00702 µM
[15] = RPMI 5 mM glucose + 10% FBS, 0.0211 µM
[16] = RPMI 5 mM glucose + 10% FBS, 0.0632 µM
[17] = RPMI 5 mM glucose + 10% FBS, 0.19 µM
[18] = RPMI 5 mM glucose + 10% FBS, 0.569 µM
[19] = RPMI 5 mM glucose + 10% FBS, 1.71 µM
[20] = RPMI 5 mM glucose + 10% FBS, 5.12 µM
[21] = RPMI 5 mM glucose + 10% FBS, 15.4 µM
[22] = RPMI 5 mM glucose + 10% FBS, 46.1 µM
[23] = RPMI 5 mM glucose + 10% dialyzed FBS, 0.000781 µM
[24] = RPMI 5 mM glucose + 10% dialyzed FBS, 0.00234 µM
[25] = RPMI 5 mM glucose + 10% dialyzed FBS, 0.00702 µM
[26] = RPMI 5 mM glucose + 10% dialyzed FBS, 0.0211 µM
[27] = RPMI 5 mM glucose + 10% dialyzed FBS, 0.0632 µM
[28] = RPMI 5 mM glucose + 10% dialyzed FBS, 0.19 µM
[29] = RPMI 5 mM glucose + 10% dialyzed FBS, 0.569 µM
[30] = RPMI 5 mM glucose + 10% dialyzed FBS, 1.71 µM
[31] = RPMI 5 mM glucose + 10% dialyzed FBS, 5.12 µM
[32] = RPMI 5 mM glucose + 10% dialyzed FBS, 15.4 µM
[33] = RPMI 5 mM glucose + 10% dialyzed FBS, 46.1 µM

| Compound | cell viability [1] [%] | cell viability [2] [%] | cell viability [3] [%] | cell viability [4] [%] | cell viability [5] [%] | cell viability [6] [%] | cell viability [7] [%] | cell viability [8] [%] | cell viability [9] [%] | cell viability [10] [%] | cell viability [11] [%] | cell viability [12] [%] | cell viability [13] [%] | cell viability [14] [%] | cell viability [15] [%] | cell viability [16] [%] | cell viability [17] [%] | cell viability [18] [%] | cell viability [19] [%] | cell viability [20] [%] | cell viability [21] [%] | cell viability [22] [%] | cell viability [23] [%] | cell viability [24] [%] | cell viability [25] [%] | cell viability [26] [%] | cell viability [27] [%] | cell viability [28] [%] | cell viability [29] [%] | cell viability [30] [%] | cell viability [31] [%] | cell viability [32] [%] | cell viability [33] [%] |
| --- | --- | --- | --- | --- | --- | --- | --- | --- | --- | --- | --- | --- | --- | --- | --- | --- | --- | --- | --- | --- | --- | --- | --- | --- | --- | --- | --- | --- | --- | --- | --- | --- | --- |
| CO[C@H]1C[C@@H]2CC[C@@H](C)[C@@](O)(O2)C(=O)C(=O)N2CCCC[C@H]2C(=O)O[C@H]([C@H](C)C[C@@H]2CC[C@@H](OP(C)(C)=O)[C@H](OC)C2)CC(=O)[C@H](C)/C=C(\C)[C@@H](O)[C@@H](OC)C(=O)[C@H](C)C[C@H](C)/C=C/C=C/C=C/1C | 91 | 97.7 | 99.9 | 98.8 | 81.7 | 40.8 | 80.2 | 81.9 | 75.4 | 71.1 | 64.1 | 87.7 | 96 | 105 | 76.7 | 80.9 | 42.9 | 85.8 | 78.8 | 63.7 | 66.6 | 52.9 | 105 | 98.1 | 108 | 108 | 92.3 | 40.3 | 85.7 | 86.9 | 71.9 | 68.2 | 57.1 |
| CCC(=O)O[C@@]1([C@@H](C)C[C@H]2[C@@H]3CCC/4=C/C(=O)/C=C\[C@]4(C)[C@@]3(F)[C@@H](O)C[C@]12C)C(=O)CCl | 86 | 92.1 | 91.3 | 57.7 | 71.1 | 69.8 | 57 | 72.3 | 61.8 | 66.4 | 63.4 | 88.5 | 95.4 | 95.9 | 51.3 | 67.8 | 62.6 | 65.1 | 66.1 | 67.6 | 56 | 66.9 | 85.2 | 81 | 91.4 | 49.4 | 63.3 | 64.6 | 64.8 | 54.1 | 64.1 | 55.6 | 40.7 |
| CCNC(=O)C[C@@H]1\N=C(C2=CC=C(Cl)C=C2)/C3=C(C=CC(=C3)OC)[N]4C(=NN=C14)C | – | – | – | – | – | – | – | – | – | – | – | – | – | – | – | – | – | – | – | – | – | – | 106 | 114 | 107 | 105 | 91.1 | 90.2 | 63.8 | 42.9 | 19.6 | 6.54 | 3.14 |
| COc1nc(-c2ccc3c(c2)OCO3)n(-c2ccc(NC(=O)CSc3ccccc3)cc2)n1 | 118 | 97.1 | 106 | 112 | 114 | 103 | 117 | 98 | 110 | 98.5 | 98.9 | 113 | 104 | 117 | 102 | 107 | 108 | 94.2 | 95.5 | 95.8 | 101 | 86.7 | 96.4 | 108 | 122 | 119 | 119 | 102 | 89 | 105 | 118 | 99.7 | 82.9 |
| C[C@H]1CN(C[C@@H](C)O1)CC(=O)NC2=CC=C3SC4=C(CC3=C2)C=CC=C4\C5=C\C(=O)\C=C(/O5)N6CCOCC6 | 80.4 | 108 | 43 | 118 | 110 | 126 | 113 | 113 | 89.8 | 84.4 | 39.8 | 76.2 | 91.8 | 14.3 | 78.1 | 86.6 | 80.5 | 83.2 | 81.9 | 75.8 | 44.1 | 15 | 86.7 | 95.3 | 34.6 | 101 | 118 | 111 | 103 | 99.4 | 73.7 | 46.9 | 19.6 |
| C[C@@H]1C[C@H]2[C@@H]3\C=C(C)/C4=C/C5=C(C[C@]4(C)[C@H]3[C@@H](O)C[C@]2(C)[C@@]1(O)C(=O)COC(C)=O)C=N[N]5C6=CC=CC=C6 | 134 | 120 | 111 | 104 | 85.4 | 67.8 | 66.4 | 56.8 | 59.7 | 59.9 | 58.8 | – | – | – | – | – | – | – | – | – | – | – | 143 | 117 | 116 | 97.7 | 75 | 63.1 | 52.8 | 54.9 | 46.1 | 43.3 | 35.5 |
| C[C@@H](c1ncncc1F)[C@](O)(Cn1cncn1)c1ccc(F)cc1F | 119 | 116 | 118 | 110 | 121 | 25.3 | 114 | 118 | 19 | 120 | 83.4 | – | – | – | – | – | – | – | – | – | – | – | 123 | 125 | 126 | 126 | 141 | 32.3 | 140 | 103 | 15.2 | 121 | 73.9 |
| Fc1ccc(C(c2ccc(F)cc2)N2CCN(C/C=C/c3ccccc3)CC2)cc1 | 113 | 126 | 109 | 102 | 116 | 76.8 | 111 | 109 | 55.8 | 96.2 | 81.6 | – | – | – | – | – | – | – | – | – | – | – | – | – | – | – | – | – | – | – | – | – | – |
